PubChem BioAssay (NCI)
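Results reflect a 48-hour exposure of cells in 96-well plates to compound at five concentrations. Definition used: TGI = concentration required for complete inhibition of growth.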

How the values were obtained:
Experiment in all cases: NCI anticancer screen, dose series, 48 h
K-562 leukemia = system: K-562 leukemia
CAKI-1 renal = system: CAKI-1 renal
A549 NSCLC = system: A549 NSCLC
DMS 114 small cell lung = system: DMS 114 small cell lung
LXFL 529 NSCLC = system: LXFL 529 NSCLC
MOLT-4 leukemia = system: MOLT-4 leukemia
SF-295 CNS = system: SF-295 CNS
PC-3 prostate = system: PC-3 prostate
HT29 colon = system: HT29 colon
SK-MEL-5 melanoma = system: SK-MEL-5 melanoma
DU-145 prostate = system: DU-145 prostate
NCI/ADR-RES ovarian = system: NCI/ADR-RES ovarian
UACC-257 melanoma = system: UACC-257 melanoma
HL-60(TB) leukemia = system: HL-60(TB) leukemia
MALME-3M melanoma = system: MALME-3M melanoma
KM12 colon = system: KM12 colon
SNB-19 CNS = system: SNB-19 CNS
MDA-MB-435 = system: MDA-MB-435
OVCAR-3 ovarian = system: OVCAR-3 ovarian
SF-539 CNS = system: SF-539 CNS
SR leukemia = system: SR leukemia
ACHN renal = system: ACHN renal
OVCAR-8 ovarian = system: OVCAR-8 ovarian
SK-MEL-2 melanoma = system: SK-MEL-2 melanoma
MDA-N = system: MDA-N
MDA-MB-231 breast = system: MDA-MB-231 breast
SW-620 colon = system: SW-620 colon
CCRF-CEM leukemia = system: CCRF-CEM leukemia
HCC-2998 colon = system: HCC-2998 colon
IGROV1 ovarian = system: IGROV1 ovarian
XF 498 CNS = system: XF 498 CNS
OVCAR-5 ovarian = system: OVCAR-5 ovarian
RXF 393 renal = system: RXF 393 renal
HOP-92 NSCLC = system: HOP-92 NSCLC
SNB-75 CNS = system: SNB-75 CNS
UO-31 renal = system: UO-31 renal
MCF7 breast = system: MCF7 breast
SN12C renal = system: SN12C renal
DMS 273 small cell lung = system: DMS 273 small cell lung
M14 melanoma = system: M14 melanoma
SF-268 CNS = system: SF-268 CNS
COLO 205 colon = system: COLO 205 colon
T-47D breast = system: T-47D breast
NCI-H460 lung = system: NCI-H460 lung
HCT-15 colon = system: HCT-15 colon
NCI-H226 lung = system: NCI-H226 lung
A498 renal = system: A498 renal
NCI-H522 lung = system: NCI-H522 lung
SK-OV-3 ovarian = system: SK-OV-3 ovarian
OVCAR-4 ovarian = system: OVCAR-4 ovarian
786-0 renal = system: 786-0 renal
SNB-78 CNS = system: SNB-78 CNS
DLD-1 colon = system: DLD-1 colon
HCT-116 colon = system: HCT-116 colon
TK-10 renal = system: TK-10 renal
HS 578T breast = system: HS 578T breast
NCI-H23 lung = system: NCI-H23 lung
M19-MEL melanoma = system: M19-MEL melanoma
RPMI-8226 leukemia = system: RPMI-8226 leukemia
UACC-62 melanoma = system: UACC-62 melanoma
HOP-18 NSCLC = system: HOP-18 NSCLC
EKVX NSCLC = system: EKVX NSCLC
SK-MEL-28 melanoma = system: SK-MEL-28 melanoma
U251 CNS = system: U251 CNS
LOX IMVI melanoma = system: LOX IMVI melanoma

Work on `COCc1cc2c(s1)C(=O)C1=C(C2=O)C2(C=C(Br)C(=O)C(Br)=C2)CCN1` yielded a TGI (K-562 leukemia) of 9.32 µM, a TGI (CAKI-1 renal) of 34.6 µM and a TGI (A549 NSCLC) of 19.4 µM. It also gave a TGI (DMS 114 small cell lung) of 3.34 µM, a TGI (LXFL 529 NSCLC) of 11.7 µM and a TGI (MOLT-4 leukemia) of 8.29 µM. The TGI (SF-295 CNS) was 19.3 µM, the TGI (PC-3 prostate) was 12.1 µM and the TGI (HT29 colon) was 12.9 µM. For the same compound, the TGI (SK-MEL-5 melanoma) was 5.62 µM, the TGI (DU-145 prostate) was 29.8 µM and the TGI (NCI/ADR-RES ovarian) was 9.41 µM. The TGI (UACC-257 melanoma) was 3.32 µM, the TGI (HL-60(TB) leukemia) was 16.3 µM and the TGI (MALME-3M melanoma) was 2.23 µM. For the same compound, the TGI (KM12 colon) was 17.9 µM, the TGI (SNB-19 CNS) was 35.5 µM and the TGI (MDA-MB-435) was 2.94 µM. For the same compound, the TGI (OVCAR-3 ovarian) was 11.8 µM, the TGI (SF-539 CNS) was 15.5 µM and the TGI (SR leukemia) was 8.35 µM. The TGI (ACHN renal) was 18 µM, the TGI (OVCAR-8 ovarian) was 14.8 µM and the TGI (SK-MEL-2 melanoma) was 15.2 µM. For the same compound, the TGI (MDA-N) was 3.11 µM, the TGI (MDA-MB-231 breast) was 15.2 µM and the TGI (SW-620 colon) was 10.6 µM. The TGI (CCRF-CEM leukemia) was 16.7 µM, the TGI (HCC-2998 colon) was 24.8 µM and the TGI (IGROV1 ovarian) was 19.3 µM. It also gave a TGI (XF 498 CNS) of 19.6 µM, a TGI (OVCAR-5 ovarian) of 29.5 µM and a TGI (RXF 393 renal) of 6.94 µM. The TGI (HOP-92 NSCLC) was 15.1 µM, the TGI (SNB-75 CNS) was 27.9 µM and the TGI (UO-31 renal) was 25.4 µM. For the same compound, the TGI (MCF7 breast) was 28.1 µM, the TGI (SN12C renal) was 20.4 µM and the TGI (DMS 273 small cell lung) was 13.6 µM. It also gave a TGI (M14 melanoma) of 4.32 µM, a TGI (SF-268 CNS) of 17.8 µM and a TGI (COLO 205 colon) of 12.4 µM. It also gave a TGI (T-47D breast) of 9.2 µM, a TGI (NCI-H460 lung) of 14.5 µM and a TGI (HCT-15 colon) of 14.7 µM. For the same compound, the TGI (NCI-H226 lung) was 26.7 µM, the TGI (A498 renal) was 29.6 µM and the TGI (NCI-H522 lung) was 7.31 µM. It also gave a TGI (SK-OV-3 ovarian) of 30.7 µM, a TGI (OVCAR-4 ovarian) of 3.57 µM and a TGI (786-0 renal) of 16.3 µM. For the same compound, the TGI (SNB-78 CNS) was 24.4 µM, the TGI (DLD-1 colon) was 24.4 µM and the TGI (HCT-116 colon) was 3.11 µM. It also gave a TGI (TK-10 renal) of 32.4 µM, a TGI (HS 578T breast) of 30.6 µM and a TGI (NCI-H23 lung) of 9.51 µM. The TGI (M19-MEL melanoma) was 2.77 µM, the TGI (RPMI-8226 leukemia) was 19.8 µM and the TGI (UACC-62 melanoma) was 3.08 µM. It also gave a TGI (HOP-18 NSCLC) of 28.4 µM, a TGI (EKVX NSCLC) of 26.3 µM and a TGI (SK-MEL-28 melanoma) of 20.3 µM. It also gave a TGI (U251 CNS) of 23.7 µM and a TGI (LOX IMVI melanoma) of 7.68 µM.
